Laboratory results taken from patent publication US20230203040A1, “CRYSTALLINE FORMS OF A SULFONAMIDE COMPOUND AND PROCESSES FOR PREPARING THE SAME” (CRYSTAL PHARMATECH CO., LTD., priority 2020, published 2023).
Converted amounts (≈) assume the structure as drawn.

What was measured:
Type in all cases: physicochemical
[1] = Solubility of crystalline forms in FaSSIF, FeSSIF and pure water (saturated solutions, HPLC); details: 37° C.; for Solubility in water: pure water
Description: The sample contents in saturated solutions were determined by high performance liquid chromatography (HPLC).

[2] = Hygroscopicity by dynamic vapor sorption (DVS); details: 25° C.; for Weight gain at 80% RH: 80% relative humidity; for Weight gain at 95% RH: 95% relative humidity
Description: The dynamic vapor sorption diagrams of the present invention were collected on Intrinsic-type and Intrinsic Plus-type dynamic vapor sorption instruments of SMS company. The process parameters of the dynamic vapor sorption test of the present invention were as follows: Temperature: 25° C. Protection gas and its flow rate: N2, 200 mL/minute dm/dt: 0.002%/minute Minimum dm/dt equilibration time: 10 minutes Maximum Equilibration Time: 180 minutes Relative humidity range: 0% RH-95% RH-0% RH Relative humidity gradient: 10% (0% RH-90% RH-0% RH), 5% (90% RH-95% RH and 95% RH-90% RH). Each about 10 mg of Crystalline Form of the present invention and Crystalline Form A of WO2020/008391A was weighed for dynamic vapor sorption (DVS) test, and then sampled to measure XRPD. The experimental results were shown in Table 21, and the dynamic vapor sorption diagrams of Crystalline Forms A and E were shown in FIGS. 22-23 respectively.

[3] = Compressibility of crystalline forms (manual tableting, hardness and tensile strength); details: for hardness (radial crushing force) / Tensile strength: tablet pressed at 10 KN; for hardness (radial crushing force): 24 hours in dryer; for Tensile strength: T=2H/πDL
Description: A manual tableting machine was used to perform the tableting. […] 10 KN pressure was applied to suppress into cylindrical tablets, which were placed in a dryer for 24 hours. After the complete elastic restoration, the tablets were tested with a tablet hardness meter for its radial crushing force (hardness, H). Diameter (D) and thickness (L) of the tablets were measured with a Vernier caliper, and the tensile strength of the powder under different hardness was calculated using the formula T=2H/πDL. Under a certain pressure, the higher the tensile strength was, the better the compressibility was.

[4] = Intrinsic dissolution rate; details: pH 6.8 Phosphate Buffer, 37° C., paddle 100 rpm, sheet 0.5 cm^2
Description: The intrinsic dissolution rate data of the present invention were collected on an Agilent 708DS-type dissolution apparatus of the Agilent company. The intrinsic dissolution test conditions were as follows.
An intact pressed sheet was transferred to the dissolution apparatus for testing the intrinsic dissolution rate, and the slope was calculated according to the measurement points between 10 and 30 minutes, expressed in mg/mL, and the intrinsic dissolution rate (IDR) was further calculated according to the slope, expressed in mg/min/cm^2. The dissolution rate of Crystalline Form E of the present invention was faster than that of Crystalline Form A of the prior art.

CCCS(=O)(=O)N[C@H]1C[C@@H](N(C)c2ncnc3[nH]ccc23)C1 [Crystalline Form E]
solubility in FaSSIF, FeSSIF and pure water compared with Crystalline Form A [1]: higher | Solubility in FaSSIF ([1]; equilibrated 1 hour): 0.1538 mg/mL (≈ 476 µM) | Solubility in FaSSIF ([1]; equilibrated 2 hours): 0.1645 mg/mL (≈ 509 µM) | Solubility in FaSSIF ([1]; equilibrated 4 hours): 0.1694 mg/mL (≈ 524 µM) | Solubility in FeSSIF ([1]; equilibrated 1 hour): 0.0384 mg/mL (≈ 119 µM) | Solubility in FeSSIF ([1]; equilibrated 2 hours): 0.0392 mg/mL (≈ 121 µM) | Solubility in FeSSIF ([1]; equilibrated 4 hours): 0.0441 mg/mL (≈ 136 µM) | Solubility in water ([1]; equilibrated 1 hour): 0.1147 mg/mL (≈ 355 µM) | Solubility in water ([1]; equilibrated 2 hours): 0.1386 mg/mL (≈ 429 µM) | Solubility in water ([1]; equilibrated 4 hours): 0.1562 mg/mL (≈ 483 µM) | Weight gain at 80% RH [2]: 0.11% | Weight gain at 95% RH [2]: 0.19% | tensile strength and compressibility compared with Crystalline Form A ([3]; 10 KN): higher tensile strength and better compressibility | hardness (radial crushing force) [3]: 17.20 N | Tensile strength [3]: 2.607 MPa | dissolution rate (intrinsic) compared with Crystalline Form A [4]: faster

CCCS(=O)(=O)N[C@H]1C[C@@H](N(C)c2ncnc3[nH]ccc23)C1 [Crystalline Form F]
Solubility in FaSSIF ([1]; equilibrated 1 hour): 0.1890 mg/mL (≈ 584 µM) | Solubility in FaSSIF ([1]; equilibrated 2 hours): 0.2035 mg/mL (≈ 629 µM) | Solubility in FaSSIF ([1]; equilibrated 4 hours): 0.2142 mg/mL (≈ 662 µM) | Solubility in FeSSIF ([1]; equilibrated 1 hour): 0.0516 mg/mL (≈ 160 µM) | Solubility in FeSSIF ([1]; equilibrated 2 hours): 0.0549 mg/mL (≈ 170 µM) | Solubility in FeSSIF ([1]; equilibrated 4 hours): 0.0592 mg/mL (≈ 183 µM) | Solubility in water ([1]; equilibrated 1 hour): 0.1796 mg/mL (≈ 555 µM) | Solubility in water ([1]; equilibrated 2 hours): 0.1892 mg/mL (≈ 585 µM) | Solubility in water ([1]; equilibrated 4 hours): 0.2030 mg/mL (≈ 628 µM)

CCCS(=O)(=O)N[C@H]1C[C@@H](N(C)c2ncnc3[nH]ccc23)C1 [Crystalline Form A, reference compound]
Solubility in FaSSIF ([1]; equilibrated 1 hour): 0.0723 mg/mL (≈ 224 µM) | Solubility in FaSSIF ([1]; equilibrated 2 hours): 0.0780 mg/mL (≈ 241 µM) | Solubility in FaSSIF ([1]; equilibrated 4 hours): 0.0761 mg/mL (≈ 235 µM) | Solubility in FeSSIF ([1]; equilibrated 1 hour): 0.0094 mg/mL (≈ 29.1 µM) | Solubility in FeSSIF ([1]; equilibrated 2 hours): 0.0094 mg/mL (≈ 29.1 µM) | Solubility in FeSSIF ([1]; equilibrated 4 hours): 0.0096 mg/mL (≈ 29.7 µM) | Solubility in water ([1]; equilibrated 1 hour): 0.0643 mg/mL (≈ 199 µM) | Solubility in water ([1]; equilibrated 2 hours): 0.0747 mg/mL (≈ 231 µM) | Solubility in water ([1]; equilibrated 4 hours): 0.0723 mg/mL (≈ 224 µM) | Weight gain at 80% RH [2]: 0.09% | Weight gain at 95% RH [2]: 0.27% | hardness (radial crushing force) [3]: 17.01 N | Tensile strength [3]: 1.805 MPa
